Drawing on ChEMBL document CHEMBL1275460, “Molecular characterization and epidemiology of extended-spectrum-beta-lactamase-producing Escherichia coli and Klebsiella pneumoniae isolates causing health care-associated infection in Thailand, where the CTX-M family is endemic” (2008), this text covers Activity, MIC90 and MIC50 for 10 compounds.

Converted amounts (≈) assume the structure as drawn.

Holding throughout (format): functional
The subject of experiment [1] is Escherichia coli. Put plainly: Antimicrobial activity against extended-spectrum beta lactamase producing Escherichia coli assessed as resistant isolates by Etest.
The subject of experiment [2] is Escherichia coli. As to the kind of experiment: Antimicrobial activity against extended-spectrum beta lactamase producing Escherichia coli expressing beta-lactamase CTX-M-3, CTX-M-15 and CTX-M-55 and other bla gene assessed as susceptible isolates by Etest.
Experiment [3] has as its system Escherichia coli. As to the kind of experiment: Antimicrobial activity against extended-spectrum beta lactamase producing Escherichia coli expressing beta-lactamase CTX-M-3, CTX-M-15 and CTX-M-55 gene assessed as susceptible isolates by Etest.
In experiment [4] the test system is Klebsiella pneumoniae. As to the kind of experiment: Antimicrobial activity against extended-spectrum beta lactamase producing Klebsiella pneumoniae expressing beta-lactamase CTX-M-3, CTX-M-15 and CTX-M-55 gene assessed as susceptible isolates by Etest.
In experiment [5] the test system is Escherichia coli. Put plainly: Antimicrobial activity against extended-spectrum beta lactamase producing Escherichia coli expressing beta-lactamase CTX-M-14 and CTX-M-27 gene assessed as susceptible isolates by Etest. To be noted: pooled result: one value given for 2 cell lines, strains, targets or settings.
The subject of experiment [6] is Klebsiella pneumoniae. As to the kind of experiment: Antimicrobial activity against extended-spectrum beta lactamase producing Klebsiella pneumoniae assessed as resistant isolates by Etest.
In experiment [7] the test system is Klebsiella pneumoniae. As to the kind of experiment: Antimicrobial activity against extended-spectrum beta lactamase producing Klebsiella pneumoniae expressing beta-lactamase CTX-M-3, CTX-M-15 and CTX-M-55 and other bla gene assessed as susceptible isolates by Etest.
Experiment [8] deals with Escherichia coli. Put plainly: Antimicrobial activity against extended-spectrum beta lactamase producing Escherichia coli expressing beta-lactamase CTX-M-14 and CTX-M-27 gene and other bla gene assessed as susceptible isolates by Etest. To be noted: pooled result: one value given for 2 cell lines, strains, targets or settings.
Experiment [9] has as its system Klebsiella pneumoniae. Put plainly: Antimicrobial activity against extended-spectrum beta lactamase producing Klebsiella pneumoniae expressing beta-lactamase CTX-M-3, CTX-M-15 and CTX-M-55 gene by Etest.
For experiment [10], the system named is Escherichia coli. As to the kind of experiment: Antimicrobial activity against extended-spectrum beta lactamase producing Escherichia coli expressing beta-lactamase CTX-M-3, CTX-M-15 and CTX-M-55 and other bla gene by Etest.
For experiment [11], the system named is Escherichia coli. As to the kind of experiment: Antimicrobial activity against extended-spectrum beta lactamase producing Escherichia coli expressing beta-lactamase CTX-M-3, CTX-M-15 and CTX-M-55 gene by Etest.
Experiment [12] has as its system Escherichia coli. As to the kind of experiment: Antimicrobial activity against extended-spectrum beta lactamase producing Escherichia coli expressing beta-lactamase CTX-M-14 and CTX-M-27 and other bla gene by Etest.
Experiment [13] relates to Escherichia coli. As to the kind of experiment: Antimicrobial activity against extended-spectrum beta lactamase producing Escherichia coli expressing beta-lactamase CTX-M-14 and CTX-M-27 gene by Etest.
Experiment [14] concerns Klebsiella pneumoniae. As to the kind of experiment: Antimicrobial activity against extended-spectrum beta lactamase producing Klebsiella pneumoniae expressing beta-lactamase CTX-M-3, CTX-M-15 and CTX-M-55 and other bla gene by Etest.
The subject of experiment [15] is Escherichia coli. As to the kind of experiment: Antimicrobial activity against extended-spectrum beta lactamase producing Escherichia coli by Etest.
Experiment [16] concerns Klebsiella pneumoniae. Put plainly: Antimicrobial activity against extended-spectrum beta lactamase producing Klebsiella pneumoniae expressing beta-lactamase CTX-M-14 and CTX-M-27 gene by Etest.
Experiment [17] concerns Klebsiella pneumoniae. As to the kind of experiment: Antimicrobial activity against extended-spectrum beta lactamase producing Klebsiella pneumoniae by Etest.
In experiment [18] the test system is Klebsiella pneumoniae. Put plainly: Antimicrobial activity against extended-spectrum beta lactamase producing Klebsiella pneumoniae expressing beta-lactamase CTX-M-14 and CTX-M-27 gene and other bla gene by Etest.

With `NCC[C@H](O)C(=O)N[C@@H]1C[C@H](N)[C@@H](O[C@H]2O[C@H](CN)[C@@H](O)[C@H](O)[C@H]2O)[C@H](O)[C@H]1O[C@H]1O[C@H](CO)[C@@H](O)[C@H](N)[C@H]1O` [AMIKACIN], the Activity in the experiment with Escherichia coli [1] is given as 12.5%; in the experiment with Escherichia coli [2] it was 81%; in the experiment with Escherichia coli [3], 81%; in the experiment on Klebsiella pneumoniae [4] it was 81%; in the experiment on Escherichia coli [5], 83.3%; in the experiment with Klebsiella pneumoniae [6], 28.6%. The figures for the Activity with Klebsiella pneumoniae [7] and in the experiment on Escherichia coli [8] were 81% and 78.9%, respectively.

In the case of `CO/N=C(\C(=O)N[C@@H]1C(=O)N2C(C(=O)O)=C(COC(C)=O)CS[C@H]12)c1csc(N)n1` [CEFOTAXIME], the MIC90 with Klebsiella pneumoniae [9] is greater than 256 µg/mL; in the experiment on Escherichia coli [10], greater than 256 µg/mL; with Escherichia coli [11], greater than 256 µg/mL; against Escherichia coli [12] it was 256 µg/mL (≈ 562 µM); in the experiment with Escherichia coli [13], 128 µg/mL (≈ 281 µM); with Klebsiella pneumoniae [14], greater than 256 µg/mL. In addition, the MIC90 in the experiment on Escherichia coli [15] was greater than 256 µg/mL; in the experiment with Klebsiella pneumoniae [16], 128 µg/mL (≈ 281 µM); in the experiment with Klebsiella pneumoniae [17] it was greater than 256 µg/mL; against Klebsiella pneumoniae [18] it was 256 µg/mL (≈ 562 µM). Moreover, the MIC50 amounted to 256 µg/mL (≈ 562 µM) against Escherichia coli [15] and 128 µg/mL (≈ 281 µM) with Klebsiella pneumoniae [17].

Turning to `CC(C)(O/N=C(\C(=O)N[C@@H]1C(=O)N2C(C(=O)[O-])=C(C[n+]3ccccc3)CS[C@H]12)c1csc(N)n1)C(=O)O` [CEFTAZIDIME], the MIC90 was 256 µg/mL (≈ 468 µM) with Klebsiella pneumoniae [9]; greater than 256 µg/mL with Escherichia coli [10]; 256 µg/mL (≈ 468 µM) against Escherichia coli [11]; greater than 256 µg/mL in the experiment on Escherichia coli [12]; 16 µg/mL (≈ 29.3 µM) against Escherichia coli [13]; greater than 256 µg/mL with Klebsiella pneumoniae [14]. Further, the MIC90 is 256 µg/mL (≈ 468 µM) against Escherichia coli [15], 16 µg/mL (≈ 29.3 µM) in the experiment on Klebsiella pneumoniae [16], greater than 256 µg/mL in the experiment on Klebsiella pneumoniae [17] and greater than 256 µg/mL in the experiment on Klebsiella pneumoniae [18]. In addition, the MIC50 came out at 32 µg/mL (≈ 58.5 µM) against Escherichia coli [15] and 128 µg/mL (≈ 234 µM) in the experiment with Klebsiella pneumoniae [17].

Consider `CO/N=C(\C(=O)N[C@@H]1C(=O)N2C(C(=O)O)=C(CSc3nc(=O)c(O)nn3C)CS[C@H]12)c1csc(N)n1` [CEFTRIAXONE], for which the MIC90 against Klebsiella pneumoniae [9], against Escherichia coli [10], against Escherichia coli [11], in the experiment with Escherichia coli [12], with Escherichia coli [13] and against Klebsiella pneumoniae [14] was greater than 256 µg/mL in each case. The MIC90 in the experiment on Escherichia coli [15], against Klebsiella pneumoniae [16], in the experiment on Klebsiella pneumoniae [17] and against Klebsiella pneumoniae [18] was greater than 256 µg/mL throughout. In addition, the MIC50 against Escherichia coli [15] and in the experiment on Klebsiella pneumoniae [17] was greater than 256 µg/mL each time.

Consider `O=C(O)c1cn(C2CC2)c2cc(N3CCNCC3)c(F)cc2c1=O` [CIPROFLOXACIN], for which the Activity in the experiment on Escherichia coli [1] was 78.1%; in the experiment with Escherichia coli [2] it was 11.1%; in the experiment with Escherichia coli [3] it was 20.4%; in the experiment with Klebsiella pneumoniae [4], 20.4%; with Escherichia coli [5] it was 25.7%; with Klebsiella pneumoniae [6], 76.6%. In addition, the values for the Activity in the experiment with Klebsiella pneumoniae [7] and in the experiment on Escherichia coli [8] were 11.1% and 8.3%, respectively.

For the compound `C[C@@H](O)[C@H]1C(=O)N2C(C(=O)O)=C(S[C@@H]3CN[C@H](C(=O)Nc4cccc(C(=O)O)c4)C3)[C@H](C)[C@H]12` [ERTAPENEM], the MIC90 amounted to 0.38 µg/mL (≈ 0.799 µM) in the experiment on Klebsiella pneumoniae [9]; 0.5 µg/mL (≈ 1.05 µM) against Escherichia coli [10]; 0.38 µg/mL (≈ 0.799 µM) against Escherichia coli [11]; 0.25 µg/mL (≈ 0.526 µM) with Escherichia coli [12]; 0.19 µg/mL (≈ 0.4 µM) in the experiment on Escherichia coli [13]; 0.5 µg/mL (≈ 1.05 µM) against Klebsiella pneumoniae [14]. In addition, the MIC90 in the experiment on Escherichia coli [15] is 0.38 µg/mL (≈ 0.799 µM); in the experiment on Klebsiella pneumoniae [16], 0.19 µg/mL (≈ 0.4 µM); in the experiment on Klebsiella pneumoniae [17], 0.38 µg/mL (≈ 0.799 µM); against Klebsiella pneumoniae [18] it was 0.25 µg/mL (≈ 0.526 µM). Further, the MIC50 in the experiment with Escherichia coli [15] and with Klebsiella pneumoniae [17] was 0.094 µg/mL (≈ 0.198 µM) each time.

`C[C@@H](O)[C@H]1C(=O)N2C(C(=O)O)=C(SCCNC=N)C[C@H]12` [IMIPENEM ANHYDROUS]: the MIC90 against Klebsiella pneumoniae [9] turned out to be 0.5 µg/mL (≈ 1.67 µM); in the experiment on Escherichia coli [10], 0.38 µg/mL (≈ 1.27 µM); against Escherichia coli [11] it was 0.5 µg/mL (≈ 1.67 µM); against Escherichia coli [12], 0.38 µg/mL (≈ 1.27 µM); in the experiment with Escherichia coli [13], 0.5 µg/mL (≈ 1.67 µM); with Klebsiella pneumoniae [14], 0.38 µg/mL (≈ 1.27 µM). The MIC90 turned out to be 0.5 µg/mL (≈ 1.67 µM) against Klebsiella pneumoniae [16], 0.38 µg/mL (≈ 1.27 µM) against Klebsiella pneumoniae [17] and 0.38 µg/mL (≈ 1.27 µM) with Klebsiella pneumoniae [18]. In addition, the MIC50 in the experiment on Klebsiella pneumoniae [17] was 0.25 µg/mL (≈ 0.835 µM).

Regarding `C[C@@H](O)[C@H]1C(=O)N2C(C(=O)O)=C(S[C@@H]3CN[C@H](C(=O)N(C)C)C3)[C@H](C)[C@H]12` [MEROPENEM], the MIC90 with Klebsiella pneumoniae [9] was 0.19 µg/mL (≈ 0.495 µM); against Escherichia coli [10], 0.125 µg/mL (≈ 0.326 µM); against Escherichia coli [11], 0.19 µg/mL (≈ 0.495 µM); with Escherichia coli [12] it was 0.064 µg/mL (≈ 0.167 µM); with Escherichia coli [13], 0.094 µg/mL (≈ 0.245 µM); with Klebsiella pneumoniae [14] it was 0.125 µg/mL (≈ 0.326 µM). The MIC90 in the experiment with Escherichia coli [15] worked out at 0.125 µg/mL (≈ 0.326 µM); with Klebsiella pneumoniae [16], 0.094 µg/mL (≈ 0.245 µM); against Klebsiella pneumoniae [17] it was 0.125 µg/mL (≈ 0.326 µM); in the experiment with Klebsiella pneumoniae [18], 0.064 µg/mL (≈ 0.167 µM). Also, the MIC50 against Escherichia coli [15] and against Klebsiella pneumoniae [17] was 0.047 µg/mL (≈ 0.123 µM) in each case.

For the compound `CN(C)[C@@H]1C(O)=C(C(N)=O)C(=O)[C@@]2(O)C(O)=C3C(=O)c4c(O)cccc4[C@@](C)(O)[C@H]3C[C@@H]12` [TETRACYCLINE], the Activity stood at 87.5% in the experiment on Escherichia coli [1]; 4.9% with Escherichia coli [2]; 4.8% in the experiment with Escherichia coli [3]; 4.8% in the experiment with Klebsiella pneumoniae [4]; 16.7% in the experiment on Escherichia coli [5]; 85.7% in the experiment with Klebsiella pneumoniae [6]. For the same compound, the values for the Activity in the experiment with Klebsiella pneumoniae [7] and with Escherichia coli [8] were 4.9% and 5.9%, respectively.

For GENTAMICIN, the Activity in the experiment with Escherichia coli [1] was determined as 66.3%; with Escherichia coli [2], 19%; in the experiment with Escherichia coli [3] it was 24.1%; in the experiment on Klebsiella pneumoniae [4], 24.1%; in the experiment on Escherichia coli [5], 33.3%; with Klebsiella pneumoniae [6] it was 76.4%. The figures for the Activity with Klebsiella pneumoniae [7] and in the experiment with Escherichia coli [8] were 19% and 30.3%, respectively.

The MIC90 is an inhibitory concentration at the 90% level, which refers to growth in some studies and to a panel of isolates in others. Low readings indicate greater potency, high ones weaker potency. A word on the MIC50: it is the lowest concentration that inhibits either 50% of growth or 50% of the strains tested, depending on the study. A higher MIC50 goes with weaker potency.
